Earlier results in patent publication US20030212274A1, “Novel amorphous form of omeprazole salts” (priority 2003, published 2003).
Where two headings read alike, the source gives them in different places.

Assays:
[1] = storage at +37° C., relative humidity 80%, 6 months (accelerated conditions)

SMILES: COc1ccc2[nH]c([S+]([O-])Cc3ncc(C)c(OC)c3C)nc2c1 (stereo not drawn) [Omeprazole, 5-methoxy-2-[(4-methoxy-3,5-dimethyl-2-pyridinyl)-methyl]sulfinyl-1H-benzimidazole]
- half-life of degradation in water solutions (pH-values less than four): ten
- half-life of degradation in water solutions (pH=7): about 14 hours
- substance converted to degradation products [1]: about 6%
